{"source": "patent US9102636B2", "about": "“Analgesic compounds, compositions, and uses thereof” (Galleon Pharmaceuticals, Inc., priority 2010, dated 2015)", "key": {"[1]": {"assay": "L-012 assay: inhibition of SIN-1 generated peroxynitrite induced luminescence/fluorescence of L-012", "assay_type": "biochemical", "settings": "15 minute time point; average of three plates", "protocol": "Luminol like compound “L-012” is a chemilumescent probe that is activated by the presence of a ROS and/or RNS such as peroxynitrite. In this assay L-012 was oxidized by the addition of 3-Morpholino-sydnonimine (“SIN-1”), a known peroxynitrite generator. The emitted fluorescence was directly proportional to the concentration of SIN-1. The compounds of the invention were then assessed for their ability to scavenge peroxynitrite by blocking the increase of peroxynitrite induced fluorescence. Concentrations of compound producing 50% inhibition of the fluorescence signal (IC50 values) were calculated by testing the compounds of the invention at various concentrations and averaging the IC50 of three plates.\nThe following solutions were added to white polystyrene, non-sterile 96-well plate (Costar #3912): 196 μL of 50 μM L-012; 2 μL of the test compound; and 24 μL of 500 mM SIN-1. Fresh stock of 50 μM L-012 in PBS pH 7.4 was made for each 96 well plate that was analyzed. The plates were read in a FlexStation3 (Molecular Devices) using the luminescent mode at 37° C. for 30 min, with a measurement every 30 seconds and an integration time of 100 msec.\nLuminescence signal was recorded by the FlexStation3 kinetically at 37° C. for 30 minutes, with a measurement every 30 seconds and an integration time of 100 msec. The data in rows A and H were dropped from each plate to exclude the possibility of an ‘edge effect’. Thus, each test compound had 3 replicates per plate."}, "FCA induced edema": {"system": "FCA induced edema", "assay": "FCA induced edema (paw volume)", "assay_type": "in vivo, rat", "protocol": "(§1) Compound 2 was evaluated in the rat Freund's complete adjuvant (FCA) model of inflammatory pain. The rat Freund's complete adjuvant (FCA) intraplantar model of inflammatory pain produces behaviors similar to those observed in patients and has been widely used to assess novel pharmacological treatments (Lam et al., 2008, J Ethnopharmacol. 120:44-50). The positive control was celecoxib (TRC, Montreal), and the negative control was vehicle (0.5% methyl cellulose, in phosphate buffered saline). […] The Hargreaves apparatus was obtained from Ugo Basile, Italy. The Freund's complete adjuvant was obtained from Sigma, St. Louis, and the electronic von frey was obtained from Stoelting, Ill. For this assay, paw withdrawal latency to a thermal stimulus was assessed using a radiant heat source (Ugo Basile, Italy) aimed at the plantar surface of the left hind paw (Hargreaves test; […] Paw withdrawal thresholds to a non-noxious tactile stimulus was assessed using an electronic von Frey apparatus that presented an increasing mechanical force to the plantar surface of the hind paw. Paw volume was measured by displacement of water and assuming a tissue density equal to that of water. […] Celecoxib (30 mg/kg p.o.) served as the positive control. […] After induction of anesthesia, the injection site was prepared in a sterile manner and 100 μl of a 50% suspension of FCA injected. After injection, animals were weighed and allowed to recover before being returned to their home cages. Statistical significance was determined on untransformed data using a two-way analysis of variance (Graphpad Prism, NC). Significant main effects were analyzed further by subsequent Bonferronni post-hoc test. The level of significance was set at p<0.05. Data are shown as mean±S.E.M. (with an asterisk to denote significance as compared to vehicle treated controls)."}, "[2]": {"system": "FCA induced tactile allodynia", "assay": "FCA induced tactile allodynia (electronic von Frey)", "assay_type": "in vivo, rat", "protocol": "as §1"}, "[3]": {"system": "spinal nerve ligation induced tactile allodynia", "assay": "Spinal nerve ligation (SNL, Chung model) induced tactile allodynia (von Frey filaments)", "assay_type": "in vivo, rat", "settings": "for Paw withdrawal threshold: FIG. 24, fasted; for Paw withdrawal threshold / Paw threshold: individual animals; for Paw threshold: FIG. 25, gabapentin (positive control, 100 mg/kg i.p.)"}, "ataxia (rotarod)": {"system": "ataxia (rotarod)", "assay": "Accelerating rotarod assay of ataxia (latency to fall)", "assay_type": "in vivo, rat", "settings": "for Latency to fall: Haloperidol 3 mg/kg p.o., maximum 300 seconds, individual animals", "protocol": "Compound 2 was evaluated in a rat accelerating rotarod model of ataxia. Ataxia is a common clinical problem with CNS-active compounds and can often confound interpretation of efficacy in preclinical pain models. The rotarod assay of ataxia has been widely used to assess the side-effect liability of novel pharmacological treatments (Jones & Roberts, 1968, J. Pharm. […] The positive control was haloperidol (Sigma, St. […] Male Sprague-Dawley Rats (Harlan, Ill.) were 250-300 g at time of dosing. Rotarod was obtained from IITC, CA. To examine the potential effects of Compound 2 on motor performance, rats were tested on an accelerating rotarod (IITC, Ca). […] Rats received two timed training trials (averaged to give the reported baseline) on the first day, then 24 hr later rats were administered Compound 2 (30, 100 and 300 mg/kg, p.o.), haloperidol (3 mg/kg, p.o.), the positive control, or vehicle. […] Statistical significance was determined on untransformed data using a two-way analysis of variance (Graphpad Prism, NC). Significant main effects were analyzed further by subsequent Bonferronni post-hoc test. The level of significance was set at p<0.05. Data are shown as mean±S.E.M. (with an asterisk to denote significance as compared to vehicle treated controls)."}}, "note": "Several values for one entry are separate records, joined by “and”; a condition that tells them apart may be missing. Identical values can stand only once. Entries after “also recorded” stand apart in the source; their conditions may differ.", "data": [{"smiles": "Cc1ccc(O)c(NC2=N[C@@H](C(=O)O)C(C)(C)S2)c1", "note": "[Compound 24, (S)-2-(2-Hydroxy-5-methylphenylamino)-thiazoline-5,5-dimethyl-4-carboxylic acid]", "values": [{"measurement": "IC50", "setting": "[1]", "result": 540, "unit": "nM"}]}, {"smiles": "COC(=O)[C@@H]1N=C(Nc2ccc(OC)cc2O)SC1(C)C", "note": "[Compound 27, (S)-2-(2-Hydroxy-4-methoxyphenylamino)-thiazoline-5,5-dimethyl-4-carboxylic acid methyl ester]", "values": [{"measurement": "IC50", "setting": "[1]", "result": 300, "unit": "nM"}]}, {"smiles": "CC1(C)SC(Nc2cc(Cl)ccc2O)=N[C@H]1C(=O)O", "note": "[Compound 21, (S)-2-(2-Hydroxy-5-chlorophenylamino)-thiazoline-5,5-dimethyl-4-carboxylic acid]", "values": [{"measurement": "IC50", "setting": "[1]", "result": 260, "unit": "nM"}]}, {"smiles": "COC(=O)[C@@H]1N=C(Nc2cc(Cl)ccc2O)SC1(C)C", "note": "[Compound 20, (S)-2-(2-Hydroxy-5-chlorophenylamino)-thiazoline-5,5-dimethyl-4-carboxylic acid methyl ester]", "values": [{"measurement": "IC50", "setting": "[1]", "result": 550, "unit": "nM"}]}, {"smiles": "Cc1ccc(-c2cc(C(F)(F)F)nn2-c2ccc(S(N)(=O)=O)cc2)cc1", "note": "[celecoxib, reference compound]", "values": [{"measurement": "Paw volume", "setting": "FCA induced edema; 24 hrs post, Celecoxib (30 mg/kg p.o.), FIG. 20A", "result": "2.8 mL and 3.1 mL and 2.7 mL and 3 mL and 2.2 mL"}, {"measurement": "Paw volume", "setting": "FCA induced edema; 48 hrs post, Celecoxib (30 mg/kg p.o.), FIG. 20A", "result": "2.7 mL and 2.8 mL and 2.2 mL"}, {"measurement": "Paw volume", "setting": "FCA induced edema; FCA/celecoxib, 30 mg/kg p.o., 1 hr (D2), individual animals, 30 mg/kg", "result": "2.3 mL (2×) and 2.6 mL and 2.4 mL (2×) and 2.7 mL (2×) and 2.5 mL"}, {"measurement": "Paw volume", "setting": "FCA induced edema; FCA/celecoxib, 30 mg/kg p.o., 1 hr, individual animals, 30 mg/kg", "result": "2.7 mL (3×) and 2.9 mL and 2.6 mL and 3.1 mL and 3 mL (2×)"}, {"measurement": "Paw volume", "setting": "FCA induced edema; FCA/celecoxib, 30 mg/kg p.o., 3 hrs (D2), individual animals, 30 mg/kg", "result": "2.4 mL and 2.5 mL (2×) and 2.3 mL (2×) and 2.7 mL and 2.6 mL and 2.8 mL"}, {"measurement": "Paw volume", "setting": "FCA induced edema; FCA/celecoxib, 30 mg/kg p.o., 3 hrs, individual animals, 30 mg/kg", "result": "2.7 mL (3×) and 2.9 mL (2×) and 2.8 mL and 3.1 mL and 2.6 mL"}, {"measurement": "Paw volume", "setting": "FCA induced edema; FCA/celecoxib, 30 mg/kg p.o., Pre-Drug (D2), individual animals, 30 mg/kg", "result": "2.4 mL and 2.6 mL (2×) and 2.3 mL (2×) and 2.5 mL and 2.7 mL and 2.8 mL"}, {"measurement": "Paw volume", "setting": "FCA induced edema; FCA/celecoxib, 30 mg/kg p.o., Pre-Drug, individual animals, 30 mg/kg", "result": "2.8 mL (3×) and 3.1 mL (2×) and 2.9 mL and 3 mL and 3.2 mL"}, {"measurement": "Paw volume", "setting": "FCA induced edema; FCA/celecoxib, 30 mg/kg p.o., Pre-FCA (baseline), individual animals, 30 mg/kg", "result": "1.7 mL (6×) and 1.8 mL and 1.9 mL"}, {"measurement": "Paw volume", "setting": "FCA induced edema; Pre-FCA, Celecoxib (30 mg/kg p.o.) group, individual rats, FIG. 20A", "result": "1.8 mL and 1.9 mL (2×) and 1.7 mL (2×) and 1.5 mL"}, {"measurement": "Paw withdrawl threshold", "setting": "[2]; 60 (min post-dose), celecoxib 30 mg/kg p.o. 24 hours post-FCA", "result": "29.9 g and 32.4 g and 19.8 g and 23.2 g and 30.9 g"}, {"measurement": "Paw withdrawl threshold", "setting": "[2]; baseline (pre-FCA), celecoxib 30 mg/kg group, individual rats", "result": "31.8 g (2×) and 39.4 g and 25.93 g and 36.6 g and 37.73 g"}]}, {"smiles": "NCC1(CC(=O)O)CCCCC1", "note": "[gabapentin, reference compound]", "values": [{"measurement": "Paw withdrawal threshold", "setting": "[3]; gabapentin 100 mg/kg i.p., 3 hrs (D1)", "result": "15 g (4×) and 5.18 g and 3.67 g and 6.58 g and 5.56 g"}, {"measurement": "Paw withdrawal threshold", "setting": "[3]; gabapentin 100 mg/kg i.p., 3 hrs (D3)", "result": "15 g (3×) and 3.33 g and 11.69 g and 8.61 g and 6.58 g and 9.86 g"}, {"measurement": "Paw withdrawal threshold", "setting": "[3]; gabapentin 100 mg/kg i.p., 5 hrs (D1)", "result": "10.31 g and 5.56 g and 6.58 g (2×) and 1.99 g and 6.66 g and 7.94 g and 6.4 g"}, {"measurement": "Paw withdrawal threshold", "setting": "[3]; gabapentin 100 mg/kg i.p., 5 hrs (D3)", "result": "15 g (2×) and 4.4 g and 4.72 g and 2.37 g and 6.58 g and 7.31 g and 6.66 g"}, {"measurement": "Paw withdrawal threshold", "setting": "[3]; gabapentin 100 mg/kg i.p., Pre-Drug (D1)", "result": "6.64 g and 1.65 g and 1.33 g and 1.56 g and 2.81 g (2×) and 4.23 g and 5.04 g"}, {"measurement": "Paw withdrawal threshold", "setting": "[3]; gabapentin 100 mg/kg i.p., Pre-Drug (D3)", "result": "6.64 g and 1.56 g and 1.4 g and 1.65 g and 5.57 g and 3.55 g and 3.58 g and 2.81 g"}, {"measurement": "Paw withdrawal threshold", "setting": "[3]; gabapentin 100 mg/kg i.p., Pre-Sx", "result": 15, "unit": "g"}, {"measurement": "Paw threshold", "setting": "[3]; 1 wk, 100 mg/kg", "result": "1.56 g (2×) and 6.58 g (2×) and 3.73 g and 2.2 g and 4.25 g and 1.4 g"}, {"measurement": "Paw threshold", "setting": "[3]; 2 wks, 100 mg/kg", "result": "0.99 g and 1.31 g and 3.13 g and 1.4 g (2×) and 2.81 g (3×)"}, {"measurement": "Paw threshold", "setting": "[3]; Pre-Sx", "result": 15, "unit": "g"}, {"measurement": "reversal of SNL tactile allodynia, positive control", "setting": "[3]; rat, gabapentin 100 mg/kg i.p., 3 and 5 hours after each administration", "result": "consistently produced a statistically significant reversal of allodynia; also recorded: statistically significant reversal of hyperalgesia"}, {"measurement": "development of SNL tactile allodynia, positive control dosed only on day of surgery", "setting": "[3]; rat, gabapentin, FIG. 25", "result": "failed to alter the course of development of allodynia"}]}, {"smiles": "O=C(CCCN1CCC(O)(c2ccc(Cl)cc2)CC1)c1ccc(F)cc1", "note": "[haloperidol, reference compound]", "values": [{"measurement": "Latency to fall", "setting": "ataxia (rotarod); Baseline", "result": "60 s and 38 s and 42.5 s and 59 s and 68 s and 48 s and 86 s and 62 s and 71 s and 80 s and 57 s"}, {"measurement": "Latency to fall", "setting": "ataxia (rotarod); Post-Drug (1 hr)", "result": "9 sec and 10 sec (2×) and 7 sec and 2 sec (2×) and 5 sec (2×) and 6 sec and 30 sec and 15 sec"}, {"measurement": "latency to fall, accelerating rotarod, positive control", "setting": "ataxia (rotarod); rat, haloperidol 3 mg/kg p.o., 1 h post-administration", "result": "significant motor deficits; also recorded: substantial reduction in latency"}]}, {"smiles": "CC1(C)SC(Nc2ccccc2O)=N[C@H]1C(=O)O", "note": "[Compound 1, (S)-2-(2-hydroxyphenylamino)-thiazoline-5,5-dimethyl-4-carboxylic acid]", "values": [{"measurement": "IC50", "setting": "[1]", "result": 270, "unit": "nM"}]}, {"smiles": "COc1ccc(NC2=N[C@@H](C(=O)O)C(C)(C)S2)c(O)c1", "note": "[Compound 26, (S)-2-(2-Hydroxy-4-methoxyphenylamino)-thiazoline-5,5-dimethyl-4-carboxylic acid]", "values": [{"measurement": "IC50", "setting": "[1]", "result": 140, "unit": "nM"}]}]}
